Assays:
[1] = biological target: T1, Human Leukocyte Elastase (HLE) (Homo sapiens, UniProt P08246); test: HLE time-dependent inactivation assay, purified elastase; format: biochemical; conditions: purified elastase 3 nM; inhibitor 26.5 nM; substrate 1 mM
T1 construct: The PMN lysates were prepared by isolating human neutrophils from whole blood; from tissue; host or cells: human neutrophils (PMN) isolated from whole blood, lysed by sonication in PBS
T1 sequence (P08246 30-267): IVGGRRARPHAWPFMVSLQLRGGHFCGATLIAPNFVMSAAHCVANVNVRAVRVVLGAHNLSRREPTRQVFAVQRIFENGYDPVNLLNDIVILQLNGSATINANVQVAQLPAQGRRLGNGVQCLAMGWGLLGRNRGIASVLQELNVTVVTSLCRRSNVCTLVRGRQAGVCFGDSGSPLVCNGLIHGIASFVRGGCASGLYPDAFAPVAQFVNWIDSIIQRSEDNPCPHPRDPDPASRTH
Protocol: (§1) As exemplified in Table 1, the Examples 1-6 of this application were determined to be potent, mechanism-based inactivators of Human Leukocyte Elastase (HLE) in two different in vitro time-dependent incubation assays. The two assays are described at the end of this Biological Data Section in Note 1. See the literature references in Note 2 for a discussion of the mechanism for this type of beta-lactam inactivation of HLE. Two sources of enzyme were used; either purified elastase or crude extracts of human polymorphonuclear leukocytes (PMN) containing elastase activity. […] For the compound of Example 1, the results were 638,000 M^−1 sec^−1 (average of n=3) and 809,000 M^−1 sec^−1 (n=4), respectively, and for Example 3, 804,000 M^−1 sec^−1 (average of n=4) and 952,000 M^−1 sec^−1 (n=5). […] Note that in this assay, head-to-head comparisons are particularly valuable.
(§2) Note 1: Enzyme Assays for the Inhibition of Human Polymorphonuclear Leukocyte Elastase Via Hydrolysis of N-Methyoxysuccinyl-alanyl-alanyl-prolylalanine-p-nitroanilide Reagent.
(§3) Prepare substrate by first dissolving in DMSO to 30 mg/ml (50 mM). Further dilute the substrate to 10 mM and add 25 μl to a final volume of 250 μl for a final concentration of 1 mM in the assay.
(§4) Prepare the enzyme in TES Buffer (0.045M TES (N-tris[hydroxymethyl]methyl-2-mino-ethanesulfonic acid), 0.45 M NaCl, pH 7.5.). Two sources of enzyme were used; either crude extracts of human polymorphonuclear leukocytes (PMN) containing elastase activity or purified elastase. The PMN lysates were prepared by isolating human neutrophils from whole blood after dextran sedimentation, ficoll density separation and red blood cell lysis. The neutrophils were lysed in PBS with sonciation and the concentration of active enzyme was determined by utilizing a standard curve of purified enzyme. For the purified elastase, the enzyme was resuspended at 10 mg/ml (˜340 μM) in 0.02M NaOAc, 50% glycerol. For both the PMN lysate and purified enzyme, a further dilution of enzyme was made to 30 nM and 25 μl was added to a final volume of 250 μl. The final concentration of enzyme in the assay was 3 nM.
(§5) The inhibitors to be tested were dissolved in DMSO at 10 mM. Directly before use, the inhibitors were further diluted into TES Buffer to 265 nM and […] was added to a final volume of 250 μl. The final concentration of inhibitor in the assay was 26.5 nM.
(§6) In a 96-well plate (flat bottom, polystyrene) 175 μl TES Buffer, 25 μl substrate, 25 μl inhibitor and 25 μl enzyme were added. After thoroughly mixing, the plate was then read in a spectrophotometer at 410 nm for 30 minutes counting every 10 seconds. Results were expressed as Kinact/Ki which is the second order rate constant in per mole per second for inactivation of the enzyme.

[2] = biological target: T1, Human Leukocyte Elastase (HLE); test: HLE time-dependent inactivation assay, PMN cell lysate source of HLE; format: biochemical; conditions: 3 nM, inhibitor 26.5 nM, substrate 1 mM
Protocol: as §1, §2, §3, §4, §5, §6

[3] = Human liver microsome stability (Assays #1-#4); format: in vitro ADME; conditions: Assay #1, substrate 1 μM, protein 0.1 mg/mL, 37° C.; for half-life at 1 μM: human, liver microsomes
Protocol: The results for Examples 1 and 3 were t112=87 and 32 minutes with 78% and 60% remaining after 30 minutes, respectively, compared to shorter half-lives and lesser amounts left for Examples 2 and 4-6 (see Note 6 for conditions).
Under similar in vitro human liver microsome preparation stability assay conditions at 37° C. for 30 or 60 minutes in a separate head-to-head experiments (Assay #2 and #3) (see Note 6 for conditions) with Examples 1 and 3 and the comparator Compound #290 from U.S. Pat. No. 5,591,737, the amounts left after the 30 minute incubation (with […] microsome protein vs 0.1 mg/mL for Assay #3) were 67, 99 and 79% and for the 60 minute incubation were 94, 73 and 77%, respectively. Similarly, in a third repeat assay (Assay #4 with—NADPH controls) (see Note 6 for conditions), 90 and 72% were remaining for Example 1 and the comparator compound, respectively. […]
Note 6: Human Liver Microsome Assay # 1-3 conditions. • Assay experiment #1: Substrate concentration=1 μM; Protein concentration=0.1 mg/mL; incubation time=30 minutes at 37° C. • Assay experiment #2: Substrate concentration=1 μM; Protein concentration 0.1 mg/mL; incubation time=30 minutes at 37° C. • Assay experiment #3: Substrate concentration=1 μM; Protein concentration=0.1 mg/mL; incubation time=60 minutes at 37° C. • Assay experiment #4: Substrate concentration=1 μM; Protein concentration=1.0 mg/mL; incubation time=60 minutes at 37° C.

Row | Structure (SMILES) | kinact/KI [1] [M⁻¹ s⁻¹] | kinact/KI [2] [M⁻¹ s⁻¹] | % Left @ 30 min [3] [%] | half-life at 1 μM [3] [min]
1 | CCC[C@@H](NC(=O)N1C(=O)C(CC)(CC)[C@@H]1Oc1ccc(C(=O)N(C)CCN(C)C)cc1)c1ccc(C(F)(F)F)cc1 [Example 4, 2-(S)-[4-(((2-(Dimethylamino)ethyl)methylamino)carbonyl)phenoxy]-3,3-diethyl-N-[1-(R)-(4-(trifluoromethyl)phenyl)butyl]-4-oxo-1-azetidinecarboxamide] | 290000 | 427000 | 51 | 25
2 | CCC[C@@H](NC(=O)N1C(=O)C(CC)(CC)[C@@H]1Oc1ccc(C(=O)N(CC)CCN(CC)CC)cc1)c1ccc(C(F)(F)F)cc1 [Example 5, 2-(S)-[4-(((2-(Diethylamino)ethyl)ethylamino)carbonyl)phenoxy]-3,3-diethyl-N-[1-(R)-(4-(trifluoromethyl)phenyl)butyl]-4-oxo-1-azetidinecarboxamide] | – | 375000 | 31 | 30

From patent US20100216761A1, “NOVEL AZETIDINONES USEFUL AS INHIBITORS OF ELASTASE” (priority 2007, published 2010)
